Usually IC50 stands for the concentration that gives 50% inhibition.

Assay [1] addresses T1, dUTPase (Homo sapiens, UniProt P33316).
T1 construct: gene DUT; human recombinant dUTPase
T1 sequence (P33316 70-252): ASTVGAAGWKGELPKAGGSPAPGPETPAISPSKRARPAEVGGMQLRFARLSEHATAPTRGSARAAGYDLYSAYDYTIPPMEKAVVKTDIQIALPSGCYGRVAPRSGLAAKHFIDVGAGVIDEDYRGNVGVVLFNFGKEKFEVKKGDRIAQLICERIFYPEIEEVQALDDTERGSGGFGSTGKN
As to the kind of experiment: malachite green assay of substrate hydrolysis by purified enzyme. The assay is classed as biochemical.

Assay [2] concerns the target T1, dUTPase. Nature of the assay: malachite green activity assay with dUTP as substrate, purified recombinant enzyme. The assay is classed as biochemical.

For `O=c1[nH]c(=O)n([C@H]2C[C@H](O)[C@@H](COP(=O)(O)OP(=O)(O)OP(=O)(O)O)O2)cc1F` [5-FdUTP], in assay [1], the “malachite green assay of substrate hydrolysis by purified enzyme” value is recorded as 5.5 μM formed PPi per second per μM enzyme.

Regarding `O=C(CCCn1ccc(=O)[nH]c1=O)N1CCC[C@H]1C(c1ccccc1)c1ccccc1` [compound 1], the IC50 in assay [2] amounted to 740 nM.

Regarding `CC(NS(=O)(=O)CCCOCn1ccc(=O)[nH]c1=O)c1cccc(OC2CCCC2)c1` (stereo not shown) [compound 2], the IC50 in assay [2] was 25 nM. With `O=c1ccn([C@H]2C[C@H](O)[C@@H](COP(=O)(O)OP(=O)(O)OP(=O)(O)O)O2)c(=O)[nH]1` [dUTP], in assay [1], the “malachite green assay of substrate hydrolysis by purified enzyme” value was 6.6 μM formed PPi per second per μM enzyme.

The values are drawn from publication PMC5410339, “dUTPase inhibition augments replication defects of 5-Fluorouracil” (Oncotarget, 2017).
